# Where “and” joins values, the source holds several entries; their conditions need not be identical. Equal values may be shown once. Entries after “also recorded” stand apart in the source; their conditions may differ.
# Columns and labels:
# [1] = tested on: fluoroquinolone-resistant, methicillin-resistant Staphylococcus aureus (K950); assay: NZW rabbit keratitis model, corneal colony counts; format: in vivo; conditions: for Log10 CFU/ml, Median / Log10 CFU/ml Maximum / Log10 CFU/ml Minimum / Log10 CFU/ml, Mean: 6 corneas; for Mean Rank, Kruskal-Wallis ANOVA with Duncan Multiple Comparisons Test - Log10 CFU/ml / Statistical comparison of colony counts between groups (< = significantly fewer colony counts): P = 0.05; for Log10 CFU/ml Maximum / Log10 CFU/ml Minimum / Log10 CFU/ml, Mean: Descriptive Statistics; for Reduction of colony counts compared with the Saline Control: corneal epithelium intact or removed; for Log10 CFU/ml: individual corneas (Row 1-6; K-3, K-4); for CFU/ml: individual corneas (Row 1-6; Ker-3, Ker-4)
# In short: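 NZW rabbit corneas, with or without intact epithelia, infected with fluoroquinolone-resistant MRSA; right eyes left untreated. Topical treatments included 1%, 0.5% or 0.25% Oligomer 2 (0.25% ± 0.005% benzalkonium chloride), 0.25% Oligomer 4 ± 200 μM Farnesol, 200 μM Farnesol alone, and 5% vancomycin; read-out corneal colony counts.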
# [2] = Draize ocular toxicity scoring, NZW rabbit ocular toxicity model; format: in vivo; set-up: key to MMTS / Score (Draize total): Draize total score of cornea, iris and conjunctivae; maximum 110; III. B. Chemosis / I. A. Cornea opacity / I. B. Area of cornea involved / II. A. Iris / III. A. Conjunctivae redness / III. C. Discharge: scale not given here
# Experimental: The ocular toxicity of several concentrations of Oligomer 2, using the Draize ocular toxicity scoring system, in the NZW rabbit ocular toxicity model was carried out.
# Rabbits were treated in both eyes with (37 μl) topical drops every 30 minutes for 3 hours (7 total doses). One rabbit was treated with Tris-Buffered Saline and served as a negative control. Rabbits were evaluated in a masked fashion for ocular toxicity by an ophthalmologist with specialty training in corneal and external disease. Ocular toxicity was evaluated using the Draize scoring system after treatment on Day 0 and on Day 3 post treatment for any delayed toxicity. (Draize et al., J. Pharmacol. Exp. Ther., 1944, 82, 377-390).
# A brief summary of the Draize scoring system for ocular lesions is provided below
# Total Maximum Score: 110 represents the sum of all scores obtained for the cornea, iris and conjunctivae.
# The ocular toxicity of several formulations of Oligomer 4 with and without farnesol, using the Draize ocular toxicity scoring system, in the NZW rabbit ocular toxicity model was carried out.
# Rabbits were treated in both eyes with (37 μl) topical drops every 30 minutes for 3 hours (7 total doses). One rabbit was treated with Tris-Buffered Saline and served as a negative control. Rabbits were evaluated in a masked fashion for ocular toxicity by an ophthalmologist with specialty training in corneal and external disease 30 minutes after the final dose. Ocular toxicity was evaluated using the Draize scoring system (see above) after treatment on Day 0 and on Day 2 post treatment for any delayed toxicity.
# [3] = 100 μM Farnesol in 1% PG and TBS, Day 0
# [4] = 100 μM Farnesol in 1% PG and TBS, Day 0, per eye
# [5] = 100 μM Farnesol in 1% PG and TBS, Day 2
# [6] = 100 μM Farnesol in 1% PG and TBS, Day 2, per eye
# [7] = 100 μM in 1% Propylene Glycol (PG) and TBS, Day 0
# [8] = 100 μM in 1% Propylene Glycol (PG) and TBS, Day 2
# [9] = 200 μM Farnesol in 1% PG and TBS, Day 0
# [10] = 200 μM Farnesol in 1% PG and TBS, Day 0, per eye
# [11] = 200 μM Farnesol in 1% PG and TBS, Day 2
# [12] = 200 μM Farnesol in 1% PG and TBS, Day 2, per eye
# [13] = 200 μM in 1% Propylene Glycol (PG) and TBS, Day 0
# [14] = 200 μM in 1% Propylene Glycol (PG) and TBS, Day 2
structure (smiles),measurement,setting,value
CC(C)=CCCC(C)=CCCC(C)=CCO [Farnesol],"Log10 CFU/ml, Median",[1]; Abraded Epithelium,6.849 Log10 CFU/ml and 6.8489 Log10 CFU/ml
same,"Log10 CFU/ml, Median",[1]; Intact Epithelium,7.3000 Log10 CFU/ml
same,"Mean Rank, Kruskal-Wallis ANOVA with Duncan Multiple Comparisons Test - Log10 CFU/ml",[1]; Abraded Epithelium,23.5000
same,Statistical comparison of colony counts between groups (< = significantly fewer colony counts),[1]; Abraded Epithelium,PMX = P + F < ONSET < FARN = CON
same,"Effect of Abraded Epithelium on Effectiveness of Each Test Solution (colony counts, < = significantly fewer)","[1]; Abraded vs. Intact Epithelium, Mann-Whitney Test",FARN-AE < FARN-IE; also recorded: Abraded < Intact
same,Log10 CFU/ml Maximum,[1]; Abraded Epithelium,6.916 Log10 CFU/ml
same,Log10 CFU/ml Minimum,[1]; Abraded Epithelium,6.109 Log10 CFU/ml
same,"Log10 CFU/ml, Mean",[1]; Abraded Epithelium,6.626 Log10 CFU/ml
same,Log10 CFU/ml Maximum,[1]; Intact Epithelium,7.6551 Log10 CFU/ml
same,Log10 CFU/ml Minimum,[1]; Intact Epithelium,7.1818 Log10 CFU/ml
same,"Log10 CFU/ml, Mean",[1]; Intact Epithelium,7.3624 Log10 CFU/ml
same,"Effect of Abraded Epithelium on Effectiveness of Each Test Solution (colony counts, abraded vs. intact)","[1]; Example 11, Mann-Whitney test, < = significantly fewer colony counts",Abraded = Intact
same,"Point estimate for ETA1-ETA2 (Mann-Whitney, Log10 CFU/ml), Intact minus Abraded Epithelium",[1]; IE Log vs AE Log of the same test solution,Point estimate for ETA1-ETA2 is 0.5964
same,"Mean Rank, Kruskal-Wallis ANOVA with Duncan Multiple Comparisons Test - Log10 CFU/ml",[1]; Intact Epithelium,22.1667
same,Statistical comparison of colony counts between groups (< = significantly fewer colony counts),[1]; Intact Epithelium,ONSET = PMX = P + F < FARN = CON
same,Statistical comparison of corneal colony counts (< = significantly fewer colony counts),"[1]; Ker-3 (Example 11), abraded epithelium, 21 doses",PMX═P+F═ONSET<FARN═CON
same,Statistical comparison of corneal colony counts (< = significantly fewer colony counts),"[1]; Ker-3 (Example 11), intact epithelium, 21 doses",ONSET=PMX═P+F<FARN═CON
same,Reduction of colony counts compared with the Saline Control,[1]; Ker-3,NOT effective
same,"Colony counts, corneal epithelium removed compared with intact epithelium",[1]; Ker-4,significantly fewer colony counts in eyes with the corneal epithelium removed
same,Statistical comparison of corneal colony counts (< = significantly fewer colony counts),"[1]; Ker-4 (Example 12), abraded epithelium",PMX═P+F<ONSET<FARN═CON
same,Statistical comparison of corneal colony counts (< = significantly fewer colony counts),"[1]; Ker-4 (Example 12), intact epithelium",ONSET=PMX═P+F<FARN═CON
same,Reduction of colony counts compared with the Saline Control,[1]; Ker-4,not effective
same,Log10 CFU/ml,[1]; Abraded Epithelium,6.875 Log10 CFU/ml and 6.109 Log10 CFU/ml and 6.146 Log10 CFU/ml and 6.889 Log10 CFU/ml and 6.823 Log10 CFU/ml and 6.916 Log10 CFU/ml
same,Log10 CFU/ml,[1]; Intact Epithelium,7.182 Log10 CFU/ml and 7.259 Log10 CFU/ml and 7.479 Log10 CFU/ml and 7.655 Log10 CFU/ml and 7.27 Log10 CFU/ml and 7.33 Log10 CFU/ml
same,CFU/ml,[1]; Abraded Epithelium,7500000 CFU/ml and 1285000 CFU/ml and 1400000 CFU/ml and 7750000 CFU/ml and 6650000 CFU/ml and 8250000 CFU/ml
same,CFU/ml,[1]; Intact Epithelium,15200000 CFU/ml and 18150000 CFU/ml and 30100000 CFU/ml and 45200000 CFU/ml and 18600000 CFU/ml and 21400000 CFU/ml
same,Classification of eye irritation,[2]; [3],Non-Irritating
same,MMTS,[2]; [3],0.0
same,MMTS classification symbol,[2]; [3],N (0.0-0.5 Non-Irritating)
same,I. A. Cornea opacity,[2]; [4],0
same,I. B. Area of cornea involved,[2]; [4],0
same,"I. Tot (cornea, A × B × 5)",[2]; [4],0
same,II. A. Iris,[2]; [4],0
same,"II. Tot (iris, A × 5)",[2]; [4],0
same,III. A. Conjunctivae redness,[2]; [4],0
same,III. B. Chemosis,[2]; [4],0
same,III. C. Discharge,[2]; [4],0
same,"III. Tot (conjunctivae, (A + B + C) × 2)",[2]; [4],0
same,Score (Draize total),[2]; [4],0
same,MMTS,[2]; [5],1.5
same,MMTS classification symbol,[2]; [5],PN (0.6-2.5 Practically Non-Irritating)
same,I. A. Cornea opacity,[2]; [6],0
same,I. B. Area of cornea involved,[2]; [6],0
same,"I. Tot (cornea, A × B × 5)",[2]; [6],0
same,II. A. Iris,[2]; [6],0
same,"II. Tot (iris, A × 5)",[2]; [6],0
same,III. A. Conjunctivae redness,[2]; [6],0
same,III. B. Chemosis,[2]; [6],0
same,MMTS,[2]; [7],0.0
same,MMTS classification,[2]; [7],N (0.0-0.5 Non-Irritating)
same,MMTS,[2]; [8],1.5
same,MMTS classification,[2]; [8],PN (0.6-2.5 Practically Non-Irritating)
same,Classification of eye irritation,[2]; [9],Non-Irritating
same,MMTS,[2]; [9],0.5
same,MMTS classification symbol,[2]; [9],N (0.0-0.5 Non-Irritating)
same,I. A. Cornea opacity,[2]; [10],0
same,I. B. Area of cornea involved,[2]; [10],0
same,"I. Tot (cornea, A × B × 5)",[2]; [10],0
same,II. A. Iris,[2]; [10],0
same,"II. Tot (iris, A × 5)",[2]; [10],0
same,III. A. Conjunctivae redness,[2]; [10],0
same,III. B. Chemosis,[2]; [10],0
same,Classification of eye irritation,[2]; [11],Non-Irritating
same,MMTS,[2]; [11],0.5
same,MMTS classification symbol,[2]; [11],N (0.0-0.5 Non-Irritating)
same,I. A. Cornea opacity,[2]; [12],0
same,I. B. Area of cornea involved,[2]; [12],0
same,"I. Tot (cornea, A × B × 5)",[2]; [12],0
same,II. A. Iris,[2]; [12],0
same,"II. Tot (iris, A × 5)",[2]; [12],0
same,III. A. Conjunctivae redness,[2]; [12],0
same,III. B. Chemosis,[2]; [12],0
same,MMTS,[2]; [13],0.5
same,MMTS classification,[2]; [13],N (0.0-0.5 Non-Irritating)
same,MMTS,[2]; [14],0.5
same,MMTS classification,[2]; [14],N (0.0-0.5 Non-Irritating)

# — patent US20130065818A1, “Arylamide Compounds And Compositions And Uses Thereof” (POLYMEDIX, priority 2006, published 2013)
